Laboratory results from patent US9018383B2, “Acylamino-substituted cyclic carboxylic acid derivatives and their use as pharmaceuticals” (Sanofi, priority 2009, dated 2015).
pIC50: −log10 of the molar value.

Biological target: human Edg-2 receptor (Homo sapiens, UniProt Q92633)
Assay: Determination of Edg-2 receptor inhibition by FLIPR measurements (LPA-mediated calcium liberation)
Format: cell-based
Settings: CHO cells overexpressing human Edg-2 receptor, LPA 100 nM, fluo-4 calcium fluorescence; read-out: Inhibitory concentrations IC50 for inhibition of the Edg-2 receptor
Procedure, shortened: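 CHO cells stably overexpressing human Edg-2, loaded with fluo-4 AM, were pre-incubated ~5 min with compound (≤0.3% DMSO), then stimulated with 100 nM LPA 18:1 in HBSS/HEPES/probenecid, pH 7.5. Peak calcium fluorescence over ~3 min, baseline-corrected, versus DMSO gave % inhibition; IC50 from triplicates.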

Sequence of human Edg-2 receptor (Q92633 whole entry): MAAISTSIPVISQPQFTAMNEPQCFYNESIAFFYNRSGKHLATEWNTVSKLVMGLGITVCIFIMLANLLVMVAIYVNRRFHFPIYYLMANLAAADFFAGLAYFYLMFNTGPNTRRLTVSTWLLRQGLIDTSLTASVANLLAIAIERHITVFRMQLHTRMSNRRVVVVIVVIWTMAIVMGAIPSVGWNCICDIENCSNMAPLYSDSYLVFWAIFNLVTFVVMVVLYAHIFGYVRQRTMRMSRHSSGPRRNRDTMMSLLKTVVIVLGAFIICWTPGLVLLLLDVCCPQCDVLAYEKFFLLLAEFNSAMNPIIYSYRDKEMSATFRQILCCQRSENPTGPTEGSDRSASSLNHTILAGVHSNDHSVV

pIC50 | Structure (SMILES)
> 7.00 | COc1ccc(-c2cc(C(=O)N[C@]3(C(=O)O)CC[C@H](C)CC3)cnc2OC)cc1Cl [Example 319]
> 7.00 | COc1ccc(-c2cc(C(=O)N[C@]3(C(=O)O)CC[C@@H](C)CC3)cnc2OC)cc1Cl [Example 320]
> 7.00 | CC[C@H]1CC[C@](NC(=O)c2ccc(OC)c(-c3cccc(OC(F)(F)F)c3)c2)(C(=O)O)CC1 [Example 327]
6.00 to 7.00 | CC[C@H]1CC[C@@](NC(=O)c2ccc(OC)c(-c3cccc(OC(F)(F)F)c3)c2)(C(=O)O)CC1 [Example 328]
> 7.00 | COc1ccc(C(=O)N[C@]2(C(=O)O)CC[C@H](C)CC2)cc1-c1cccc(OC(F)(F)F)c1 [Example 329]
4.52 to 6.00 | COc1ccc(C(=O)N[C@]2(C(=O)O)CC[C@@H](C)CC2)cc1-c1cccc(OC(F)(F)F)c1 [Example 330]
> 7.00 | CC[C@H]1CC[C@](NC(=O)c2ccc(OC)c(-c3cccc(C(F)(F)F)c3)c2)(C(=O)O)CC1 [Example 331]
> 7.00 | CC[C@H]1CC[C@@](NC(=O)c2ccc(OC)c(-c3cccc(C(F)(F)F)c3)c2)(C(=O)O)CC1 [Example 332]
> 7.00 | COc1ccc(C(=O)N[C@]2(C(=O)O)CC[C@H](C)CC2)cc1-c1cccc(C(F)(F)F)c1 [Example 333]
6.00 to 7.00 | COc1ccc(C(=O)N[C@]2(C(=O)O)CC[C@@H](C)CC2)cc1-c1cccc(C(F)(F)F)c1 [Example 334]
> 7.00 | CC[C@H]1CC[C@](NC(=O)c2ccc(OC)c(-c3ccc(OC)c(Cl)c3)c2)(C(=O)O)CC1 [Example 351]
> 7.00 | CC[C@H]1CC[C@@](NC(=O)c2ccc(OC)c(-c3ccc(OC)c(Cl)c3)c2)(C(=O)O)CC1 [Example 352]
> 7.00 | CC[C@H]1CC[C@@](NC(=O)c2cnc(OC)c(OCCc3ccccc3)c2)(C(=O)O)CC1 [Example 355, trans-4-Ethyl-1-[(6-methoxy-5-phenethyloxy-pyridine-3-carbonyl)-amino]-cyclohexanecarboxylic acid]
> 7.00 | COc1ncc(C(=O)N[C@]2(C(=O)O)CC[C@H](C)CC2)cc1OCCc1cccc(Cl)c1 [Example 356, cis-1-({5-[2-(3-Chloro-phenyl)-ethoxy]-6-methoxy-pyridine-3-carbonyl}-amino)-4-methyl-cyclohexanecarboxylic acid]
> 7.00 | CC[C@H]1CC[C@](NC(=O)c2cnc(OC)c(OCCc3cccc(Cl)c3)c2)(C(=O)O)CC1 [Example 357, cis-1-({5-[2-(3-Chloro-phenyl)-ethoxy]-6-methoxy-pyridine-3-carbonyl}-amino)-4-ethyl-cyclohexanecarboxylic acid]
> 7.00 | CC[C@H]1CC[C@](NC(=O)c2cnc(OC)c(OCCc3ccccc3)c2)(C(=O)O)CC1 [Example 358, cis-4-Ethyl-1-[(6-methoxy-5-phenethyloxy-pyridine-3-carbonyl)-amino]-cyclohexanecarboxylic acid]
> 7.00 | CC[C@H]1CC[C@](NC(=O)c2cnc(OC)c(-c3ccc(F)c(F)c3)c2)(C(=O)O)CC1 [Example 359, cis-1-{[5-(3,4-Difluoro-phenyl)-6-methoxy-pyridine-3-carbonyl]-amino}-4-ethyl-cyclohexanecarboxylic acid]
> 7.00 | CC[C@H]1CC[C@](NC(=O)c2cnc(OC)c(-c3cc(F)cc(F)c3)c2)(C(=O)O)CC1 [Example 360, cis-1-{[5-(3,5-Difluoro-phenyl)-6-methoxy-pyridine-3-carbonyl]-amino}-4-ethyl-cyclohexanecarboxylic acid]
> 7.00 | CC[C@@H]1C[C@]1(NC(=O)c1cnc(OC)c(OCCc2cccc(Cl)c2)c1)C(=O)O [Example 361, (1R,2R)-1-({5-[2-(3-Chloro-phenyl)-ethoxy]-6-methoxy-pyridine-3-carbonyl}-amino)-2-ethyl-cyclopropanecarboxylic acid]
> 7.00 | CC[C@H]1CC[C@@](NC(=O)c2cc(F)c(OCCO)c(-c3cccc(C(F)(F)F)c3)c2)(C(=O)O)CC1 [Example 362, trans-4-Ethyl-1-{[5-fluoro-6-(2-hydroxy-ethoxy)-3′-trifluoromethyl-biphenyl-3-carbonyl]-amino}-cyclohexanecarboxylic acid]
6.00 to 7.00 | COc1ccc(C(=O)NC2(C(=O)O)CCCCCC2)cc1OCCc1cccc(C(F)(F)F)c1 [Example 363]
> 7.00 | COc1ccc(C(=O)NC2(C(=O)O)CCCCCC2)cc1OCCc1ccccc1Cl [Example 364]
6.00 to 7.00 | COc1ccc(C(=O)NC2(C(=O)O)CCCCCC2)cc1OCCc1cccc(F)c1 [Example 365]
6.00 to 7.00 | COc1ccc(C(=O)NC2(C(=O)O)CCC(C(C)(C)C)CC2)cc1OCCc1cccc(C)c1 (centres unmarked) [Example 366]
6.00 to 7.00 | COc1ccc(C(=O)NC2(C(=O)O)CCCC(C)C2)cc1OCCc1cccc(C)c1 (centres unmarked) [Example 367]

pIC50 | Structure (SMILES)
6.00 to 7.00 | COc1ccc(C(=O)NC2(C(=O)O)CC2)cc1OCCc1cccc(C)c1 [Example 368]
6.00 to 7.00 | COc1ccc(C(=O)NC2(C(=O)O)CCC(C(F)(F)F)CC2)cc1OCCc1cccc(C)c1 (centres unmarked) [Example 369]
> 7.00 | COc1ccc(C(=O)NC2(C(=O)O)CCC(C(C)C)CC2)cc1OCCc1cccc(C)c1 (centres unmarked) [Example 370]
6.00 to 7.00 | COc1ccc(C(=O)NC2(C(=O)O)CCC(C(C)(C)C)CC2)cc1OCCc1cccc(C)c1 (centres unmarked) [Example 371]
6.00 to 7.00 | COc1ccc(C(=O)NC2(C(=O)O)CCCC(C)C2)cc1OCCc1cccc(C)c1 (centres unmarked) [Example 372]
6.00 to 7.00 | COc1ccc(C(=O)NC2(C(=O)O)CCC(C)C2)cc1OCCc1cccc(C)c1 (centres unmarked) [Example 373]
> 7.00 | COc1ccc(C(=O)NC2(C(=O)O)CCC(OC)CC2)cc1OCCc1cccc(C)c1 (centres unmarked) [Example 374]
> 7.00 | COc1ncc(C(=O)N[C@]2(C(=O)O)CC[C@H](C(F)(F)F)CC2)cc1-c1cc(F)c(F)c(F)c1 [Example 375]
> 7.00 | COc1ncc(C(=O)N[C@]2(C(=O)O)CC[C@H](C(F)(F)F)CC2)cc1-c1cccc(C(F)(F)F)c1 [Example 376]
> 7.00 | COc1ncc(C(=O)N[C@]2(C(=O)O)CC[C@H](C(F)(F)F)CC2)cc1-c1cccc(C(F)(F)F)c1F [Example 377]
> 7.00 | COc1ncc(C(=O)N[C@]2(C(=O)O)CC[C@H](C(F)(F)F)CC2)cc1-c1cccc(Cl)c1Cl [Example 378]
> 7.00 | COc1ncc(C(=O)N[C@]2(C(=O)O)CC[C@H](C(F)(F)F)CC2)cc1-c1cccc(OC(F)(F)F)c1 [Example 379]
> 7.00 | COc1ncc(C(=O)N[C@]2(C(=O)O)CC[C@H](C(F)(F)F)CC2)cc1-c1cc(Cl)cc(C(F)(F)F)c1 [Example 380]
> 7.00 | CC[C@H]1CC[C@](NC(=O)c2cc(F)c(OCCO)c(-c3ccc(OC)c(Cl)c3)c2)(C(=O)O)CC1 [Example 381]
> 7.00 | CC[C@H]1CC[C@](NC(=O)c2cc(F)c(OCCO)c(-c3cccc(OC(F)(F)F)c3)c2)(C(=O)O)CC1 [Example 382]
> 7.00 | CC[C@H]1CC[C@](NC(=O)c2cc(F)c(OCCO)c(-c3ccc(F)c(F)c3)c2)(C(=O)O)CC1 [Example 384]
> 7.00 | CC[C@H]1CC[C@](NC(=O)c2cc(F)c(OCCO)c(-c3cc(F)cc(F)c3)c2)(C(=O)O)CC1 [Example 385]
> 7.00 | CC[C@H]1CC[C@@](NC(=O)c2ccc(OCCO)c(-c3cccc(C(F)(F)F)c3)c2)(C(=O)O)CC1 [Example 386, trans-4-Ethyl-1-{[6-(2-hydroxy-ethoxy)-3′-trifluoromethyl-biphenyl-3-carbonyl]-amino}-cyclohexanecarboxylic acid]
> 7.00 | COc1c(F)cc(C(=O)N[C@]2(C(=O)O)CC[C@@H](C)CC2)cc1OCCc1cccc(CCO)c1 [Example 392, trans-1-(3-Fluoro-5-{2-[3-(2-hydroxy-ethyl)-phenyl]-ethoxy}-4-methoxy-benzoylamino)-4-methyl-cyclohexanecarboxylic acid]
> 7.00 | COc1c(F)cc(C(=O)NC2(C(=O)O)CCCCCC2)cc1OCCc1cccc(CCO)c1 [Example 393, 1-(3-Fluoro-5-{2-[3-(2-hydroxy-ethyl)-phenyl]-ethoxy}-4-methoxy-benzoylamino)-cycloheptanecarboxylic acid]
> 7.00 | CC[C@H]1CC[C@@](NC(=O)c2cc(F)c(OC)c(OCCc3cccc(CCO)c3)c2)(C(=O)O)CC1 [Example 394, trans-4-Ethyl-1-(3-fluoro-5-{2-[3-(2-hydroxy-ethyl)-phenyl]-ethoxy}-4-methoxy-benzoylamino)-cyclohexanecarboxylic acid]
> 7.00 | CC[C@H]1CC[C@@](NC(=O)c2cnc(OC)c(OCCc3cccc(C)c3)c2)(C(=O)O)CC1 [Example 395, trans-4-Ethyl-1-{[6-methoxy-5-(2-m-tolyl-ethoxy)-pyridine-3-carbonyl]-amino}-cyclohexanecarboxylic acid]
> 7.00 | CC[C@H]1CC[C@](NC(=O)c2cnc(OC)c(OCCc3cccc(C)c3)c2)(C(=O)O)CC1 [Example 396, cis-4-Ethyl-1-{[6-methoxy-5-(2-m-tolyl-ethoxy)-pyridine-3-carbonyl]-amino}-cyclohexanecarboxylic acid]
> 7.00 | CC[C@H]1CC[C@@](NC(=O)c2cnc(OC)c(OCCc3cccc(Cl)c3)c2)(C(=O)O)CC1 [Example 397, trans-1-({5-[2-(3-Chloro-phenyl)-ethoxy]-6-methoxy-pyridine-3-carbonyl}-amino)-4-ethyl-cyclohexanecarboxylic acid]
> 7.00 | CC[C@H]1CC[C@@](NC(=O)c2cnc(OC)c(OCCc3cccc(OC(F)(F)F)c3)c2)(C(=O)O)CC1 [Example 398, trans-4-Ethyl-1-({6-methoxy-5-[2-(3-trifluoromethoxy-phenyl)-ethoxy]-pyridine-3-carbonyl}-amino)-cyclohexanecarboxylic acid]
